Reference: patent US20260315487A1, “IKK-ALPHA INHIBITORS” (Cancer Research Technology Limited, priority 2023, published 2026)
Like-named read-outs stand apart in the source and are kept apart here.

How the values were obtained:
Assay type in all cases: biochemical
IKKα = target: T1, IKKα (Homo sapiens, UniProt O15111); test: in-house DELFIA kinase assay, IKKα
T1 sequence (O15111 1-745): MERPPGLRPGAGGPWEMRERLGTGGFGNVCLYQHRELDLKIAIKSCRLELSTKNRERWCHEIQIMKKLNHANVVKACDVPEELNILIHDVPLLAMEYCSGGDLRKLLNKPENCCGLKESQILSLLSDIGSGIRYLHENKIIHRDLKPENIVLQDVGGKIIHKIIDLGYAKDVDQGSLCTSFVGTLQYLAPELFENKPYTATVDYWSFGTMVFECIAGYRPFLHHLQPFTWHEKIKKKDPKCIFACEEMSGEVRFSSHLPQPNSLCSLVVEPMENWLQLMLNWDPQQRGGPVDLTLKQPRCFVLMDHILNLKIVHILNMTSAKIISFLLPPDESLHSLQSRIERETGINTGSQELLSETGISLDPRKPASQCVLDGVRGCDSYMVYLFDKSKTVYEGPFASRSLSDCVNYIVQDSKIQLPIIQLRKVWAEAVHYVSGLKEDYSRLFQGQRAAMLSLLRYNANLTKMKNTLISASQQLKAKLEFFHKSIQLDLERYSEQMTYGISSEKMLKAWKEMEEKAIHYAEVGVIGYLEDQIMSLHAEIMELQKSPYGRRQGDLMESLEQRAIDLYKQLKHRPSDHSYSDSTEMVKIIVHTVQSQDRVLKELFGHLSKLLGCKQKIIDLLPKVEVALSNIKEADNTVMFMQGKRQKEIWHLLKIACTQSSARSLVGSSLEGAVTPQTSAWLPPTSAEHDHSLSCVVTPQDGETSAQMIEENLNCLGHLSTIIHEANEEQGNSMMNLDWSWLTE

panel of kinases = test: kinome profiling at 1 μM
From the text: (§1) We profiled three compounds from the series across the kinome (FIG. 11). […] To identify the structural drivers for CDK inhibition, we obtained X-ray crystal structures of 5 y and 6 g SU1336 and SU1349 with CDK-2 (FIG. 12A) to potentially identify possible routes towards introducing selectivity for IKKα over the CDK enzymes as well as IKKβ. […] All three derivatives form complexes with CDK2 with the pyrrolo[2,3 -b]pyridine H-bonding to GK+3 (Leu 83 ) and the aminoindazole projected towards the G-loop (FIG. 12A), forming H-bonds with Glu 51 and Lys 33 at the back of the pocket. The adoption of the 4 SU1253 -type orientation, rather than the flipped pose observed in IKKα, is probably facilitated by Tr-stacking between the aminoindazole and the GK residue, which in the CDKs is Phe, rather than Met. […] For 6 g SU1349, the hydrophobic pendant benzyloxy group points out into solvent, but can form face-to-edge Tr-Tr interactions with Phe 82 and His 84 from the hinge. Exchanging the hydrophobic pendant benzyloxy group for the morpholinoethyl-containing substituent in 5 y SU1336 removes any direct interaction with these hinge residues, preferring to sit in a more solvent-exposed position, as befits a basic side chain that will be protonated at physiological pH (FIG. 12B).
(§2) Black, 4 SU1253; grey, 5 r SU1261; diagonal stripes, 6 g SU1349. […] All tested compounds (4 SU1253, 5 r SU1261 and 6 g SU1349 ) inhibited CDK5 and CDK9 with >80 %.

CDK5 = CDK5 (Homo sapiens, UniProt Q00535); test: kinome profiling at 1 μM, CDK5; settings: read-out: % inhibition of CDK5
CDK5, sequence (Q00535 whole entry, species assumed): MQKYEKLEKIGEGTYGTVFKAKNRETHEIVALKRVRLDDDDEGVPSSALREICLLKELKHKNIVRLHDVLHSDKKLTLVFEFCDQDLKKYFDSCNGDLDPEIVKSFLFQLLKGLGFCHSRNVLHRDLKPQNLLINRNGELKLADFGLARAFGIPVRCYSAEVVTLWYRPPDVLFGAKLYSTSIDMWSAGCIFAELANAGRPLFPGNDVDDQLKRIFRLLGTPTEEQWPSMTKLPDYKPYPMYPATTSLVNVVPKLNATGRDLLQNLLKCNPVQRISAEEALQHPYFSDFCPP
CDK5, sequence (Q15078 99-307 partner limits assumed, species assumed): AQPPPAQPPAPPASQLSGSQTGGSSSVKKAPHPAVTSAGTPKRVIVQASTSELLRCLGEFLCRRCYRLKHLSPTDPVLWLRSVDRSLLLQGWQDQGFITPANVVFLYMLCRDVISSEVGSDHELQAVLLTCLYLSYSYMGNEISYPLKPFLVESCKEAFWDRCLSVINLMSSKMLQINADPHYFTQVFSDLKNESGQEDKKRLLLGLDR
From the text: as §1, §2

MKK7 P = target: T2, MKK7 P (Homo sapiens, UniProt O14733); test: kinome profiling at 1 μM, MKK7
T2 sequence (O14733 1-419): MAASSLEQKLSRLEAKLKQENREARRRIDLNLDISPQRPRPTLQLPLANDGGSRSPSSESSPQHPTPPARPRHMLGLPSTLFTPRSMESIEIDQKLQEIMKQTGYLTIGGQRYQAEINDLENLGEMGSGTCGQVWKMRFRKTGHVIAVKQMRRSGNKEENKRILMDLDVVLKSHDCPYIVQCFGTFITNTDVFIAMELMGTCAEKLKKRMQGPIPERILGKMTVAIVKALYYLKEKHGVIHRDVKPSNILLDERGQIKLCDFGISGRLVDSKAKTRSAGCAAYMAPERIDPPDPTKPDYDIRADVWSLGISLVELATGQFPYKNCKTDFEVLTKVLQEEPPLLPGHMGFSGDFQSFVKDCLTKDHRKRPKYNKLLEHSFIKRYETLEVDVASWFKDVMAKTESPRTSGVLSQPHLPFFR
From the text: as §1

Ki (IKKα) [nM] | inhibition at 1 µM (CDK5; 1 μM) [%] | inhibition at 1 µM (MKK7 P; read-out: % inhibition of MKK7) [%] | inhibition at 1 µM (CDK5) [%] | SMILES | number of kinases inhibited by >80 % (panel of kinases; panel of 231 kinases) [kinases] | number of kinases inhibited by >80 % (panel of kinases; panel of 253 kinases (FIG. 11)) [kinases] | off-target inhibition of MKK7, in words (MKK7 P; 1 μM, compared with 5r SU1261)
10 | > 80 | > 80 |  | Nc1n[nH]c2ccc(-c3ccnc4[nH]c(-c5cccc(OCc6ccccc6)c5)cc34)cc12 [5r SU1261, 5-(2-(3-(benzyloxy)phenyl)-1 H-pyrrolo[2,3-b]pyridin-4-yl)-1 H-indazol-3-amine] | 10 | 10 | 
16 |  |  | > 80 | Nc1n[nH]c2ccc(-c3ccnc4[nH]c(-c5ccnc(OCc6ccccc6)c5)cc34)cc12 [6g SU1349, 5-(2-(2-(Benzyloxy)pyridin-4-yl)-1 H-pyrrolo[2,3-b]pyridin-4-yl)-1 H-indazol-3-amine] |  | 4 | significantly reduced off-target inhibition
